The results in this text go back to patent US20220125051A1, “PRE-HARVEST DESICCATION METHOD” (SYNGENTA CROP PROTECTION AG, priority 2019, published 2022).

Experiment in all cases: Post-emergence efficacy, Method A
Assay type in all cases: in vivo

One assay relates to Lolium perenne (LOLPE). As to conditions: Application rate 500 g/Ha, evaluated after 13 days, 100=total damage to plant, 0=no damage to plant; for pest or weed control at 500 g/ha: Lolium perenne, post-emergence, 312 h, read-out: Control of weed species after post-emergence application, LOLPE. In short, it runs like this:
(§1)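 Post-emergence spray on 14-day-old glasshouse plants (24/16 °C day/night, 14 h photoperiod, 65% humidity). Test material was taken up in acetone and IF50 emulsifier mix, then diluted with sodium lauryl ether sulphate (0.25% or 1%) plus 1% ammonium sulphate. Damage was rated 13 days later, 100 = total.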

The subject of assay [1] is Chenopodium album (CHEAL). Particulars: Application rate 500 g/Ha, evaluated after 13 days, 100=total damage to plant, 0=no damage to plant; for pest or weed control at 500 g/ha: Chenopodium album, post-emergence, 312 h, read-out: Control of weed species after post-emergence application, CHEAL. In short, it runs like this:
as §1

The test system of assay [2] is Digitaria sanguinalis (DIGSA). Particulars: Application rate 500 g/Ha, evaluated after 13 days, 100=total damage to plant, 0=no damage to plant; for pest or weed control at 500 g/ha: Digitaria sanguinalis, post-emergence, 312 h, read-out: Control of weed species after post-emergence application, DIGSA. A digest of the protocol: as §1
The next assay has as its system Setaria faberi (SETFA). As to conditions: Application rate 500 g/Ha, evaluated after 13 days, 100=total damage to plant, 0=no damage to plant; for pest or weed control at 500 g/ha: Setaria faberi, post-emergence, 312 h, read-out: Control of weed species after post-emergence application, SETFA. A digest of the protocol: as §1
The test system of assay [3] is Ipomoea hederacea (IPOHE). As to conditions: Application rate 500 g/Ha, evaluated after 13 days, 100=total damage to plant, 0=no damage to plant; for pest or weed control at 500 g/ha: Ipomoea hederacea, post-emergence, 312 h, read-out: Control of weed species after post-emergence application, IPOHE. A digest of the protocol:
as §1

Assay [4] deals with Amaranthus palmeri (AMAPA). Particulars: Application rate 500 g/Ha, evaluated after 13 days, 100=total damage to plant, 0=no damage to plant; for pest or weed control at 500 g/ha: Amaranthus palmeri, post-emergence, 312 h, read-out: Control of weed species after post-emergence application, AMAPA. In short, it runs like this: as §1
In assay [5] the test system is Echinochloa crus-galli (ECHCG). As to conditions: Application rate 500 g/Ha, evaluated after 13 days, 100=total damage to plant, 0=no damage to plant; for pest or weed control at 500 g/ha: Echinochloa crus-galli, post-emergence, 312 h, read-out: Control of weed species after post-emergence application, ECHCG. A digest of the protocol: as §1
A further assay has as its system Eleusine indica (ELEIN). Particulars: Application rate 500 g/Ha, evaluated after 13 days, 100=total damage to plant, 0=no damage to plant; for pest or weed control at 500 g/ha: Eleusine indica, post-emergence, 312 h, read-out: Control of weed species after post-emergence application, ELEIN. In short, it runs like this:
as §1

Assay [6] deals with Euphorbia heterophylla (EPHHL). Particulars: Application rate 500 g/Ha, evaluated after 13 days, 100=total damage to plant, 0=no damage to plant; for pest or weed control at 500 g/ha: Euphorbia heterophylla, post-emergence, 312 h, read-out: Control of weed species after post-emergence application, EPHHL. In short, it runs like this: as §1

Regarding `Cc1cnc(-c2cc[n+](CCS(=O)(=O)[O-])nc2)c(Cl)c1` [Compound A136], the pest or weed control at 500 g/ha in the assay on Lolium perenne (LOLPE) worked out at 20%; in [1] it was 30%; in assay [2], 60%; with Setaria faberi (SETFA) it was 70%; in [3], 30%; in [4], 60%. Besides, the figures for the pest or weed control at 500 g/ha (in assay [5]; in the assay with Eleusine indica (ELEIN); in assay [6]) were 40%, 50% and 30%, respectively.
On to `Cc1cnc(-c2cc[n+](CCC(=O)O)nc2)c(Cl)c1` [Compound A137], for which the pest or weed control at 500 g/ha in the assay with Lolium perenne (LOLPE) turned out to be 20%; in assay [1], 20%; in assay [2], 40%; with Setaria faberi (SETFA) it was 40%; in [3], 10%; in assay [4], 60%. The pest or weed control at 500 g/ha in assay [5] is 30%; in the assay on Eleusine indica (ELEIN), 40%; in assay [6] it was 20%.
As for `COC(=O)CC[n+]1ccc(-c2cccnn2)cn1` [Compound A139], the pest or weed control at 500 g/ha amounted to 90% in the assay with Lolium perenne (LOLPE); 100% in [1]; 100% in [2]; 100% in the assay with Setaria faberi (SETFA); 10% in assay [3]; 80% in assay [4]. The results for the pest or weed control at 500 g/ha (in assay [5]; with Eleusine indica (ELEIN); in [6]) were 100%, 100% and 90%, respectively.
As to `O=S(=O)([O-])CC[n+]1ccc(-c2ncccc2C(F)(F)F)cn1` [Compound A140], the pest or weed control at 500 g/ha came to 0% in the assay with Lolium perenne (LOLPE); 50% in assay [1]; 10% in assay [2]; 30% in the assay on Setaria faberi (SETFA); 20% in [3]; 60% in assay [4]. For the same molecule, the pest or weed control at 500 g/ha was determined as 20% in [5], 10% in the assay on Eleusine indica (ELEIN) and 50% in assay [6].
For the molecule `O=S(=O)([O-])CC[n+]1ccc(-c2ncccc2Cl)cn1` [Compound A141], the pest or weed control at 500 g/ha with Lolium perenne (LOLPE) is 30%; in assay [1], 60%; in assay [2] it was 40%; with Setaria faberi (SETFA), 50%; in assay [3], 30%; in assay [4], 100%. Also, the pest or weed control at 500 g/ha in assay [5] was 50%; in the assay on Eleusine indica (ELEIN), 60%; in [6] it was 20%.
Turning to `O=S(=O)([O-])CC[n+]1ccc(-c2ncc(Cl)cc2Cl)cn1` [Compound A142], the pest or weed control at 500 g/ha was 10% with Lolium perenne (LOLPE); 20% in [1]; 40% in assay [2]; 30% in the assay with Setaria faberi (SETFA); 20% in [3]; 10% in assay [4]. Besides, the pest or weed control at 500 g/ha in assay [5] amounted to 40%; in the assay on Eleusine indica (ELEIN), 60%; in [6], 60%.
For `O=C(O)CC[n+]1ccc(-c2ncc(F)cc2F)cn1` [Compound A144], the pest or weed control at 500 g/ha with Lolium perenne (LOLPE) was 10%; in [1] it was 10%; in assay [2] it was 30%; in the assay with Setaria faberi (SETFA) it was 20%; in assay [3] it was 10%; in assay [4], 20%. Moreover, the pest or weed control at 500 g/ha (in assay [5]; in the assay with Eleusine indica (ELEIN); in assay [6]) was 20% in each case.
`Cc1n[n+](CCC(=O)O)ccc1-c1ccccn1` [Compound A145]: the pest or weed control at 500 g/ha in the assay on Lolium perenne (LOLPE) was determined as 0%; in [1], 10%; in assay [2] it was 10%; in the assay with Setaria faberi (SETFA) it was 0%; in [3] it was 10%; in assay [4], 10%. Moreover, the pest or weed control at 500 g/ha in assay [5] amounted to 0%; in the assay with Eleusine indica (ELEIN), 0%; in [6], 10%.
Consider `O=C(O)c1ccnc(-c2cc[n+](CCCS(=O)(=O)[O-])nc2)n1` [Compound A146], for which the “Control of weed species after post-emergence application, LOLPE” value in the assay with Lolium perenne (LOLPE) is recorded as 50. Further, the “Control of weed species after post-emergence application, CHEAL” value in [1] is recorded as 40. Further, in assay [2], the “Control of weed species after post-emergence application, DIGSA” value is given as 80. In addition, the “Control of weed species after post-emergence application, SETFA” value in the assay with Setaria faberi (SETFA) is reported as 100. Moreover, the “Control of weed species after post-emergence application, IPOHE” value in assay [3] was determined as 30. The “Control of weed species after post-emergence application, AMAPA” value in assay [4] turned out to be 90. The “Control of weed species after post-emergence application, ECHCG” value in assay [5] was determined as 90. In addition, the “Control of weed species after post-emergence application, ELEIN” value with Eleusine indica (ELEIN) came out at 80. Further, the “Control of weed species after post-emergence application, EPHHL” value in assay [6] turned out to be 50.
`N#Cc1ccnc(-c2cc[n+](CCCS(=O)(=O)[O-])nc2)n1` [Compound A147]: the pest or weed control at 500 g/ha in the assay on Lolium perenne (LOLPE) worked out at 40%; in assay [1], 50%; in assay [2], 20%; in the assay on Setaria faberi (SETFA), 40%; in [3] it was 60%; in assay [4] it was 40%. Also, the results for the pest or weed control at 500 g/ha (in assay [5]; with Eleusine indica (ELEIN); in assay [6]) were 30%, 20% and 70%, respectively.
With `O=C(O)CC[n+]1ccc(-c2ccccn2)cn1` [Compound A148], the pest or weed control at 500 g/ha with Lolium perenne (LOLPE) was 20%; in assay [1], 40%; in assay [2], 50%; in the assay with Setaria faberi (SETFA), 50%; in assay [3], 20%; in assay [4], 100%. Further, the values for the pest or weed control at 500 g/ha (in [5]; with Eleusine indica (ELEIN); in assay [6]) were 50%, 40% and 60%, respectively.
`O=C(O)CC[n+]1ccc(-c2ncccc2Cl)cn1` [Compound A149]: the pest or weed control at 500 g/ha is 40% in the assay on Lolium perenne (LOLPE); 40% in assay [1]; 50% in [2]; 40% with Setaria faberi (SETFA); 10% in assay [3]; 30% in [4]. Also, the results for the pest or weed control at 500 g/ha (in assay [5]; with Eleusine indica (ELEIN); in assay [6]) were 50%, 60% and 30%, respectively.
In the case of `Cc1cc(F)cnc1-c1cc[n+](CCC(=O)O)nc1` [Compound A151], the pest or weed control at 500 g/ha in the assay with Lolium perenne (LOLPE) turned out to be 10%; in assay [1] it was 20%; in assay [2], 20%; in the assay with Setaria faberi (SETFA), 20%; in [3], 10%; in [4], 20%. Also, the pest or weed control at 500 g/ha in [5] turned out to be 20%; with Eleusine indica (ELEIN) it was 20%; in assay [6], 40%.
